According to ChEMBL document CHEMBL3044704, “Synthesis, characterization, antioxidant, and anticancer studies of 6-[3-(4-chlorophenyl)-1H-pyrazol-4-yl]-3-[(2-naphthyloxy)methyl][1,2,4]triazolo[3,4-b][1,3,4]thiadiazole in HepG2 cell lines” (Med Chem Res, 2011):
Values after ≈ are worked out from the molar mass of the structure shown. Active and inactive are the calls of the source. No cut-off for these calls is given here.

Experiments:
[1] = Antioxidant activity assessed as inhibition of ABTS radical production after 20 min by spectrophotometric analysis; assay type: functional
[2] = system: Radical scavenging activity; assay: Antioxidant activity assessed as inhibition of DPPH radical production after 20 min by spectrophotometric analysis; assay type: functional
HepG2 [3] = assay: Induction of cell cycle arrest in Homo sapiens (human) HepG2 cells assessed as S phase cells at 0.08 ug/ml after 24 hr by flow cytometric analysis (reference value: 32.84 +/- 1.06%); assay type: functional
HepG2 [4] = assay: Cytotoxicity against Homo sapiens (human) HepG2 cells assessed as chromatin condensation after 24 hr by Hoechst-staining method; assay type: functional, cell-based
HepG2 [5] = assay: Induction of cell cycle arrest in Homo sapiens (human) HepG2 cells assessed as increase in subG1 phase cells after 24 hr by flow cytometric analysis; assay type: functional, cell-based
HepG2 [6] = assay: Induction of cell cycle arrest in Homo sapiens (human) HepG2 cells assessed as G1 phase cells at 0.08 ug/ml after 24 hr by flow cytometric analysis (reference value: 50.68 +/- 1.42%); assay type: functional
HepG2 [7] = assay: Induction of cell cycle arrest in Homo sapiens (human) HepG2 cells assessed as G2/M phase cells at 0.06 ug/ml after 24 hr by flow cytometric analysis (reference value: 12.92 +/- 0.27%); assay type: functional
HepG2 [8] = assay: Cytotoxicity against Homo sapiens (human) HepG2 cells assessed as inhibition of [3H]thymidine incorporation incubated for 3 hr prior to [3h]thymidine incorporation measured after 2 hr by liquid scintillation counting; assay type: functional, cell-based
HepG2 [9] = assay: Induction of cell cycle arrest in Homo sapiens (human) HepG2 cells assessed as G1 phase cells at 0.06 ug/ml after 24 hr by flow cytometric analysis (reference value: 50.68 +/- 1.42%); assay type: functional
HepG2 [10] = assay: Induction of cell cycle arrest in Homo sapiens (human) HepG2 cells assessed as subG1 phase cells at 0.08 ug/ml after 24 hr by flow cytometric analysis (reference value: 3.57 +/- 0.03%); assay type: functional
HepG2 [11] = assay: Induction of cell cycle arrest in Homo sapiens (human) HepG2 cells assessed as subG1 phase cells at 0.06 ug/ml after 24 hr by flow cytometric analysis (reference value: 3.57 +/- 0.03%); assay type: functional
HepG2 [12] = assay: Cytotoxicity against Homo sapiens (human) HepG2 cells after 24 hr by MTT assay; assay type: functional, cell-based; conditions: HepG2, 24 h
HepG2 [13] = assay: Induction of cell cycle arrest in Homo sapiens (human) HepG2 cells assessed as G2/M phase cells at 0.08 ug/ml after 24 hr by flow cytometric analysis (reference value: 12.92 +/- 0.27%); assay type: functional
HepG2 [14] = assay: Induction of cell cycle arrest in Homo sapiens (human) HepG2 cells assessed as S phase cells at 0.06 ug/ml after 24 hr by flow cytometric analysis (reference value: 32.84 +/- 1.06%); assay type: functional

SMILES	inhibition [1]	IC50 [2] [µg/mL]	Activity (HepG2 [3]) [%]	Activity (HepG2 [4])	Activity (HepG2 [5])	Activity (HepG2 [6]) [%]	Activity (HepG2 [7]) [%]	inhibition (HepG2 [8])	Activity (HepG2 [9]) [%]	Activity (HepG2 [10]) [%]	Activity (HepG2 [11]) [%]	IC50 (HepG2 [12]) [µg/mL]	Activity (HepG2 [13]) [%]	Activity (HepG2 [14]) [%]
O=C1O[C@H]([C@@H](O)CO)C(O)=C1O [ASCORBIC ACID]	Active	1.46 (≈ 8.29 µM)												
Clc1ccc(-c2n[nH]cc2-c2nn3c(COc4ccc5ccccc5c4)nnc3s2)cc1	Active	1.023 (≈ 2.23 µM)	23.68	Dose-dependent effect	Dose-dependent effect	52.65	10.58	Dose-dependent effect	56.59	12.33	4	0.8 (≈ 1.74 µM)	11.33	28.82
